Laboratory results taken from US9127040B2, “Regulation of sodium channels by PLUNC proteins” (The University of North Carolina at Chapel Hill, priority 2011, dated 2015).
Ends that are not written are not given here.

B1: SPLUNC1: human SPLUNC1 (SEQ ID NO:1), 256 amino acid secreted PLUNC family protein; rSPLUNC1 is the purified V5/6His-tagged recombinant form (protein, listed as Homo sapiens)
chain: MFQTGGLIVFYGLLAQTMAQFGGLPVPLDQTLPLNVNPALPLSPTGLAGSLTNALSNGLLSGGLLGILENLPLLDILKPGGGTSGGLLGGLLGKVTSVIPGLNNIIDIKVTDPQLLELGLVQSPDGHRLYVTIPLGIKLQVNTPLVGASLLRLAVKLDITAEILAVRDKQERIHLVLGDCTHSPGSLQISLLDGLGPLPIQGLLDSLTGILNKVLPELVQGNVCPLVNEVLRGLDITLVHDIVNMLIHGLQFVIKV
modifications: V5/6His tag in recombinant form
notes: rSPLUNC1 is the purified V5/6His-tagged recombinant form

Key:
[1] = biological target: T1, αENaC-eGFP and βENaC-mCherry (Homo sapiens, UniProt P37088+P51168); test: Acceptor-photobleaching FRET between fluorescently tagged ENaC subunits; format: cell-based; conditions: one hour of exposure
T1 construct: expressed in transfected cells
Text: Ai, cartoon of αENaC-eGFP and βENaC-mCherry under basal conditions (γENaC not shown). Aii We hypothesize that S18 binding to the extracellular loop of βENaC (1) induces a conformational change in ENaC which is reflected as altered intracellular FRET (2). This change may facilitate NEDD4-2-induced ubiquitination (3), leading to internalization of αβγENaC (4). […] In contrast, exposure to aprotinin had no effect. All n=8-10. C, Typical confocal images of HEK cells expressing αγENaC and βENaC-eGFP before and 1 h after 100 μM S18. Cell outlines are traced in white.
Since ENaC is regulated by NEDD4-2 binding to its C-termini, which leads to ubiquitination of its N-termini and internalization, we propose that S18 causes a conformational change in ENaC, leading to increased ubiquitination followed by internalization (FIG. 21A). As a first step towards understanding the mechanism of action of SPLUNC1, we performed FRET on fluorescently tagged ENaCs. […] Furthermore, βENaC-eGFP internalized upon S18 binding (FIG. 21C), consistent with our surface biotinylation data from oocytes.

human ASIC1a = biological target: T2, human ASIC1a (Homo sapiens, UniProt P78348); test: Whole-cell patch-clamp currents in CHO cells stably expressing ASIC; format: cell-based; conditions: 10 μM S18
T2 construct: expressed in transfected cells
Experimental: (§1) Previously described cell lines expressing human ASIC1a, human ASIC2a and rat ASIC3 were used in these experiments (Poirot, J. Biol. Chem. 279: 38448 (2004))). Electrophysiological measurements were carried out with an EPC10 patch-clamp amplifier (HEKA Electronics, Lambrecht, Germany) as previously described (Blanchard et al., Pflugers Arch. 461:123 (2011)).
(§2) Whole-cell currents were measured from CHO cells stably expressing acid-sensing ion channel (ASIC) subunits, voltage clamped to −60 mV. Stimulations lasted 5 s and were performed every 45 s. Cells were stimulated three times with pH 6.6 (ASIC1a and -3) or pH 4 (ASIC2a). Between stimulations, cells were returned to a pH 7.4 conditioning solution for […] recovery from inactivation. The conditioning solution was then switched to a pH 7.4 solution containing 10 μM S18. Three stimulations in the presence of 10 μM S18 were performed before washing off the peptide. Current amplitudes of the above described experiments were normalized to the first control value and plotted as a function of time (FIG. 28B). S18 was added at T=0 s. ASIC1a=▪, ASIC2a=●, ASIC3=▴, all n=3. Cells were incubated for 40 s in a pH 7.1 (ASIC1a and -3) or 5.6 (ASIC2a) conditioning solution, then activated using an acidic stimulus (pH 5 for ASIC1a and -3, and pH 4 for ASIC2a) (FIG. 28C). Experiments were performed with or without 10 μM S18 in the conditioning solution. Current amplitudes measured during the acidic stimulus were normalized to the control amplitude obtained with a pH 7.4 conditioning solution. Open bars=control, closed bars=S18, all n=3-4. […] Stimulations were performed every 45 s. The protocol was performed with or without 10 μM S18 in all solutions. The average current is plotted as a function of time. […] Control=∘, S18=▪, all n=3-5.

human ASIC2a = biological target: T3, human ASIC2a (Homo sapiens, UniProt Q16515); test: as above; format: cell-based; conditions: 10 μM S18
T3 construct: expressed in transfected cells
Experimental: as §1, §2

rat ASIC3 = biological target: T4, rat ASIC3 (Rattus norvegicus, UniProt O35240); test: as above; format: cell-based; conditions: 10 μM S18
T4 construct: expressed in transfected cells
Experimental: as §1, §2

CFTR = biological target: T5, CFTR (Homo sapiens, UniProt P13569); test: CFTR activity in Xenopus oocytes co-expressing β2 adrenergic receptor, isoproterenol stimulated; format: cell-based; conditions: 10 μM isoproterenol
T5 construct: expressed in transfected cells; host or cells: Xenopus oocytes

NL HBECs = test: ASL height by confocal microscopy in normal lung (NL) HBECs; format: cell-based, human; conditions: SPLUNC1 shRNA knockdown, 50 ng/ml rSPLUNC1 added to ASL
Experimental: To label airway surface liquid, Ringer containing Texas Red-dextran (2 mg/ml; Invitrogen) was added to human bronchial epithelial culture mucosal surfaces. Perfluorocarbon was added mucosally to prevent evaporation of the airway surface liquid and the culture placed in a chamber containing 100 μl Ringer on the stage of a Leica SP5 confocal microscope with a 63× glycerol immersion objective. 5 points per culture were scanned and an average airway surface liquid height determined. For confocal microscopy human bronchial epithelial cultures were bathed serosally in a modified Ringer solution containing (mM): 116 NaCl, 10 NaHCO3, 5.1 KCl, 1.2 CaCl2, 1.2 MgCl2, 20 TES, 10 glucose, pH 7.4). At all other times, human bronchial epithelial cultures were maintained in a modified BEGM growth medium which contained 24 mM NaHCO3 gassed with 5% CO2.
To label the ASL, PBS containing 10 kDa Rhodamine dextran (0.2-2 mg/mL; Invitrogen, Carlsbad, Calif., USA) was added to HBEC mucosal surfaces as previously described (Tarran et al., Mol. Cell 8:149 (2001)). When added, peptides with or without 100 nM neutrophil elastase, 1 U/mL aprotinin, activated neutrophil supernatant (ANS) (Haynes et al., Am. J. Physiol. Heart Circ. Physiol. 294:H379 (2008)) or 10 μM sivelestat (Sigma-Aldrich, St Louis, Mo., USA) were added to the mucosal surface along with the Rhodamine dextran. Bumetanide (100 μM) was added to the serosal solution.

T5 sequence (P13569 whole entry, species assumed): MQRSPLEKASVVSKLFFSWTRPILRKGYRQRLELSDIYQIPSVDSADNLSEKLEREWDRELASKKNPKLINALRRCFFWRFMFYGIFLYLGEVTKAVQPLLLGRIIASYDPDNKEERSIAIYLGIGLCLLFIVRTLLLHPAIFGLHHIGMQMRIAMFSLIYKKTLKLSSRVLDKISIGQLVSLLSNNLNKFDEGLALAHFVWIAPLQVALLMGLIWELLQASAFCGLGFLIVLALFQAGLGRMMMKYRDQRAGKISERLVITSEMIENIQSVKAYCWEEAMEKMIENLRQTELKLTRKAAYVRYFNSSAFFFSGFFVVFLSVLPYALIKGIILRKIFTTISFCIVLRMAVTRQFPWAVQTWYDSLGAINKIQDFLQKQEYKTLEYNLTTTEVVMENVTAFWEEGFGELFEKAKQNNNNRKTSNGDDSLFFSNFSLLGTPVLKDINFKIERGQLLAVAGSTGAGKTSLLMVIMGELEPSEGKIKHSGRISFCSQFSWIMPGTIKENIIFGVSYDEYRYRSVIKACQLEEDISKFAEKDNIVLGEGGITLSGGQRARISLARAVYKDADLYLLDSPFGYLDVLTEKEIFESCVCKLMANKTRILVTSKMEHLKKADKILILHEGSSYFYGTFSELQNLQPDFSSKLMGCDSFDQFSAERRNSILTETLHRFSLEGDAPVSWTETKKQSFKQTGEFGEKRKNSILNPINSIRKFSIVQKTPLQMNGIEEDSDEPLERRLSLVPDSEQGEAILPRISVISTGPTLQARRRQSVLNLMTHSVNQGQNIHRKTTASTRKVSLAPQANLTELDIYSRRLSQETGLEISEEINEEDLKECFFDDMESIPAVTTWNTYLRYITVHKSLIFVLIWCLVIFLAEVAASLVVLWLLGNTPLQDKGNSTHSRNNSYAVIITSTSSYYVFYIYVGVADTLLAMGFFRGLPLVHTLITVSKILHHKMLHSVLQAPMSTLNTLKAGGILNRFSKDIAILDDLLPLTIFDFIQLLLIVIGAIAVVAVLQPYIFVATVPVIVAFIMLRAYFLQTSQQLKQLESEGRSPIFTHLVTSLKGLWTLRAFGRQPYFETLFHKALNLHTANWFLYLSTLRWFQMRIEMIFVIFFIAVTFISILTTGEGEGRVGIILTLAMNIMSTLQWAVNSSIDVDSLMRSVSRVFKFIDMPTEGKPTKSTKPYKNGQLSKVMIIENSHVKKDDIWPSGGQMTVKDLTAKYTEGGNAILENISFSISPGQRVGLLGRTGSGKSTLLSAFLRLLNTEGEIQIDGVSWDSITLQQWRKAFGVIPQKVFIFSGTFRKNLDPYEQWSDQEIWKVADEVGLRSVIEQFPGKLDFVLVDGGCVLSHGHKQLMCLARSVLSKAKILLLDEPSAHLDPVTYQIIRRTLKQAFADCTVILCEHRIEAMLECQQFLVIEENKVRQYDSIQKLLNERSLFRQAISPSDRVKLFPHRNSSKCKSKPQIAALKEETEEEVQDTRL
T2 sequence (P78348 whole entry): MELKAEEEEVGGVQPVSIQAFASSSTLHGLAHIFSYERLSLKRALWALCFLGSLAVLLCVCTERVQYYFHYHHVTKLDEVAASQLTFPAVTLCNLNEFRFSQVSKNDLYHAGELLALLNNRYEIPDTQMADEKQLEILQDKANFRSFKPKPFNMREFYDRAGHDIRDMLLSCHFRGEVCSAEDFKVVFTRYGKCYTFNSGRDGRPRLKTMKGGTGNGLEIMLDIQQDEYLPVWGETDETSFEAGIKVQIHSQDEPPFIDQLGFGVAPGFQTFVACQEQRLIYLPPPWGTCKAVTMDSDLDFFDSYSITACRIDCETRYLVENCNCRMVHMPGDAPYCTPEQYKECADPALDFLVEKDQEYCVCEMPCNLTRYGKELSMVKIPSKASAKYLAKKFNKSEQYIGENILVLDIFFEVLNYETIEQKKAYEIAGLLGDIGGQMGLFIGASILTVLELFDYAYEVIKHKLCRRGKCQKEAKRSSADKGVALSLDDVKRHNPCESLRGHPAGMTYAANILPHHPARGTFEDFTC
T3 sequence (Q16515 whole entry): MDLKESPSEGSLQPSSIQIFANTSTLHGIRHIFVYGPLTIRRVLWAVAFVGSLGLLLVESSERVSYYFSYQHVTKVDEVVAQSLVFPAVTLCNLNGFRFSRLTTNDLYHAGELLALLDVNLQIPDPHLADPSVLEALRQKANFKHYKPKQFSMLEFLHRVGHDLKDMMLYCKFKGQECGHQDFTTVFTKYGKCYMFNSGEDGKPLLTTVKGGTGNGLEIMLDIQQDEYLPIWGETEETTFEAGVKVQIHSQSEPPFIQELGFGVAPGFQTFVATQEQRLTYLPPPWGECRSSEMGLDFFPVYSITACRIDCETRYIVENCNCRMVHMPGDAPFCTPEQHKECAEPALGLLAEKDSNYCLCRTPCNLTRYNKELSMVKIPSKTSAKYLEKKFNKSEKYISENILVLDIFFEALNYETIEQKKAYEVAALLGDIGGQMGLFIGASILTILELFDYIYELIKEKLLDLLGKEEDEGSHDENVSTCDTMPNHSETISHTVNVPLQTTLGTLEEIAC
T1 sequence (P37088 whole entry): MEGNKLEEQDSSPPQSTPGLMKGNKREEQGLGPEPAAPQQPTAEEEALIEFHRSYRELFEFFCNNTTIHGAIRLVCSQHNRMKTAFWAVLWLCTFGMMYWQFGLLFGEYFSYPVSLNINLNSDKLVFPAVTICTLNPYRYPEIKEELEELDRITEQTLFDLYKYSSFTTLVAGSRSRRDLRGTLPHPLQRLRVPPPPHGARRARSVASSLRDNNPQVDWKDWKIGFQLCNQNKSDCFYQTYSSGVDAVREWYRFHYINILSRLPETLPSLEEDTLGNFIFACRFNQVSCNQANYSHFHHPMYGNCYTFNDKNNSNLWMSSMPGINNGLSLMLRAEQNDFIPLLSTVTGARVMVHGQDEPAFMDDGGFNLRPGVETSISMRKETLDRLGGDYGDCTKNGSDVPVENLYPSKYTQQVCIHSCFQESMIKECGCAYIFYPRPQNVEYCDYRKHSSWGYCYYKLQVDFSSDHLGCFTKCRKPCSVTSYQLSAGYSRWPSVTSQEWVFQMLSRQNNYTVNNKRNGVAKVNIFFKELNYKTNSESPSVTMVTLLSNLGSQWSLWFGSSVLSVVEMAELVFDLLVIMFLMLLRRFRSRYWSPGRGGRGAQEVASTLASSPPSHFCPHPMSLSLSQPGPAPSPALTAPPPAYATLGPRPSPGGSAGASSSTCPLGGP
T1 sequence (P51168 whole entry): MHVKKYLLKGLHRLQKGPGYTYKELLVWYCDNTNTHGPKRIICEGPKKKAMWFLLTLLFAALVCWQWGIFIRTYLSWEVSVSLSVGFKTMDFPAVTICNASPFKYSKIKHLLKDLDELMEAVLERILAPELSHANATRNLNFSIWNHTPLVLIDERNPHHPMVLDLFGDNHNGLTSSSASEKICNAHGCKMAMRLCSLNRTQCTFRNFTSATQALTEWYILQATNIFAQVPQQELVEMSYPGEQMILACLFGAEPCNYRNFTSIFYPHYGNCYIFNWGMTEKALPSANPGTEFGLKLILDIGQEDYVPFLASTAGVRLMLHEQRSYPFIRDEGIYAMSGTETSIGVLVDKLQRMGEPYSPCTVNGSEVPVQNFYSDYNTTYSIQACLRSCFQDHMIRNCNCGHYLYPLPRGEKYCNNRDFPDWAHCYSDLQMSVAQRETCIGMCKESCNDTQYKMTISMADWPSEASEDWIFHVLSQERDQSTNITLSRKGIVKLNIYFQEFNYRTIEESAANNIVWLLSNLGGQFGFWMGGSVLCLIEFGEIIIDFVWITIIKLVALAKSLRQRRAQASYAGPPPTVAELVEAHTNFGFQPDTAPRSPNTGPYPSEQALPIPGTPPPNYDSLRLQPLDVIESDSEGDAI
T1 sequence (P51170 whole entry partner): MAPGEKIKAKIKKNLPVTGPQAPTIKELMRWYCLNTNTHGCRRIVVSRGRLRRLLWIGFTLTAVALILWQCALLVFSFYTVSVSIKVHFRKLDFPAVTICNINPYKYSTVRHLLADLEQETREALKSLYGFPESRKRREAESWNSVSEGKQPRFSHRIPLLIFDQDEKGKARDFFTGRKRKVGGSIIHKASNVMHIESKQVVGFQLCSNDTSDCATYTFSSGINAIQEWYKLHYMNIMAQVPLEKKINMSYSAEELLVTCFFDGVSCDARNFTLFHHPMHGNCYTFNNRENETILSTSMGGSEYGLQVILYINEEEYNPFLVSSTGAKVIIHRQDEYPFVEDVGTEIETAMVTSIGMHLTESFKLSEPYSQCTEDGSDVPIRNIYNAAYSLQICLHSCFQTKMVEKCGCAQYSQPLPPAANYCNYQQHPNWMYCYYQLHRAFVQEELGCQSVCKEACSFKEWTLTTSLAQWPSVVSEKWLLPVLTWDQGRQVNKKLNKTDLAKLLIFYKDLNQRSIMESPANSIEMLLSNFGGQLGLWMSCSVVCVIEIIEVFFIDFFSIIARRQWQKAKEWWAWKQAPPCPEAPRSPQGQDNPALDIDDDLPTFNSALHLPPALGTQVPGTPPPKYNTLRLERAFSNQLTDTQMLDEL
T4 sequence (O35240 whole entry): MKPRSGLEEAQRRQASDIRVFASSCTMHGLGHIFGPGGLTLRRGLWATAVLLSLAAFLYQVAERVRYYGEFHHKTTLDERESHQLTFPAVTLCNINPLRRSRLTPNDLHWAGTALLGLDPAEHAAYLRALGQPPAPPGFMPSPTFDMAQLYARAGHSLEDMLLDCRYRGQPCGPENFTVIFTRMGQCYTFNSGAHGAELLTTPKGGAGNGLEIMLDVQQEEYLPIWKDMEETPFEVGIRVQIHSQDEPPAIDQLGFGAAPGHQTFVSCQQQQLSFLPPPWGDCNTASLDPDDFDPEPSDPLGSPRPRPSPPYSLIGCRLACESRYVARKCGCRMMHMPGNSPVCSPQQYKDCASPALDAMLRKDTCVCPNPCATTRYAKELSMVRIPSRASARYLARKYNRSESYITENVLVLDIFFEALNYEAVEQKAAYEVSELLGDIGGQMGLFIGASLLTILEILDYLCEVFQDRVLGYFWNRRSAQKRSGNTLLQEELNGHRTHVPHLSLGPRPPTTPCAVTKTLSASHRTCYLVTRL

Row | Molecule | FRET between αENaC-eGFP and βENaC-mCherry [1] | function of ASIC1a channels (human ASIC1a) | function of ASIC2a channels (human ASIC2a) | function of ASIC3 channels (rat ASIC3) | CFTR activity (CFTR; 5 ng/ml rSPLUNC1 exposure) | CFTR activity (CFTR; injection of SPLUNC1 cRNA) | regulation of airway surface liquid height in cultures lacking SPLUNC1 (NL HBECs) | regulation of airway surface liquid height in cultures lacking SPLUNC1 (NL HBECs; listed as recombinant SPLUNC1)
1 | GGLPVPLDQTLPLNVNPA [S18] | significantly diminished | does not Affect the Function | does not Affect the Function | does not Affect the Function |  |  |  | 
2 | B1 |  |  |  |  | no inhibitory effect on CFTR activity | no inhibitory effect on CFTR activity | restored | sufficient to restore ASL volume regulation
